Data reported in PubChem BioAssay AID330 (DTP/NCI, 2004).
Values joined by “and” are separate entries in the source; they are usually repeats but may differ in a detail not shown here. Equal entries are not always repeated. Toxic doses and inconclusive results are not listed. How the source made its calls: active means survival T/C of 150% or more; inactive means T/C below 125% in these data.

System: P388 leukemia ip, CD2F1 mice, survival T/C
Assay: NCI In Vivo Anticancer Drug Screen. Data for tumor model P388 Leukemia (intraperitoneal) in CD2F1 (CDF1) mice
Details: endpoint: median survival time, higher = longer survival
Method in brief: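 Mice carrying the transplanted tumor received test compound or vehicle. Survival was recorded in each group, and the value is the treated-group measurement divided by that of the vehicle-treated control group.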

[1] = dose: 100.0 mg/kg/injection, schedule: Q04DX002 (ip), vehicle: saline with Tween-80
[2] = dose: 200.0 mg/kg/injection, schedule: Q04DX002 (ip), vehicle: saline with Tween-80
[3] = dose: 12.5 mg/kg/injection, schedule: Q01DX009 (ip), vehicle: saline with Tween-80
[4] = dose: 25.0 mg/kg/injection, schedule: Q01DX009 (ip), vehicle: saline with Tween-80
[5] = dose: 50.0 mg/kg/injection, schedule: Q01DX009 (ip), vehicle: saline with Tween-80
[6] = dose: 50.0 mg/kg/injection, schedule: Q01DX005 (ip), vehicle: saline with Tween-80
[7] = dose: 100.0 mg/kg/injection, schedule: Q01DX005 (ip), vehicle: saline with Tween-80
[8] = dose: 200.0 mg/kg/injection, schedule: Q01DX005 (ip), vehicle: saline with Tween-80
[9] = dose: 50.0 mg/kg/injection, schedule: Q01DX009 (ip), vehicle: saline
[10] = dose: 100.0 mg/kg/injection, schedule: Q01DX009 (ip), vehicle: saline
[11] = dose: 200.0 mg/kg/injection, schedule: Q01DX009 (ip), vehicle: saline
[12] = dose: 100.0 mg/kg/injection, schedule: Q01DX009 (ip), vehicle: saline with Tween-80
[13] = dose: 60.0 mg/kg/injection, schedule: Q01DX005 (ip), vehicle: saline with Tween-80
[14] = dose: 120.0 mg/kg/injection, schedule: Q01DX005 (ip), vehicle: saline with Tween-80
[15] = dose: 240.0 mg/kg/injection, schedule: Q01DX005 (ip), vehicle: saline with Tween-80
[16] = dose: 1.56 mg/kg/injection, schedule: Q01DX009 (ip), vehicle: saline
[17] = dose: 100.0 mg/kg/injection, schedule: Q04DX003 (ip), vehicle: saline
[18] = dose: 200.0 mg/kg/injection, schedule: Q04DX003 (ip), vehicle: saline
[19] = dose: 400.0 mg/kg/injection, schedule: Q04DX003 (ip), vehicle: saline
[20] = dose: 25.0 mg/kg/injection, schedule: Q01DX009 (ip), vehicle: Klucel (hydroxypropylcellulose) (HPC)
[21] = dose: 50.0 mg/kg/injection, schedule: Q01DX009 (ip), vehicle: Klucel (hydroxypropylcellulose) (HPC)
[22] = dose: 100.0 mg/kg/injection, schedule: Q01DX009 (ip), vehicle: Klucel (hydroxypropylcellulose) (HPC)

Measured: T/C

Cc1nc2ccccc2c(=O)n1NC(=S)Nc1ccc(Cl)cc1
inactive: [1] 90 % of control | [2] 88 % of control | dose: 400.0 mg/kg/injection, schedule: Q04DX002 (ip), vehicle: saline with Tween-80 90 % of control

CCn1c2nc(=O)n(C)c(=O)c-2cc2cc(C)ccc21
inactive: [3] 92 % of control | [4] 101 % of control | [5] 109 % of control

N#C/C(=N\NC(=O)c1cccnc1)c1ccc(Cl)cc1
inactive: [6] 92 % of control | [7] 92 % of control | [8] 101 % of control

CCN(CC)C1=NS(=O)(=O)c2ccccc2C(c2ccccc2)=C1C
inactive: dose: 25.0 mg/kg/injection, schedule: Q04DX003 (ip), vehicle: Klucel (hydroxypropylcellulose) (HPC) 99 % of control | dose: 50.0 mg/kg/injection, schedule: Q04DX003 (ip), vehicle: Klucel (hydroxypropylcellulose) (HPC) 99 % of control | dose: 100.0 mg/kg/injection, schedule: Q04DX003 (ip), vehicle: Klucel (hydroxypropylcellulose) (HPC) 100 % of control and 95 % of control | dose: 400.0 mg/kg/injection, schedule: Q04DX003 (ip), vehicle: Klucel (hydroxypropylcellulose) (HPC) 87 % of control

CCOC(=O)NCCCCC(N)C(=O)O (stereo not drawn)
inactive: [9] 97 % of control | [10] 102 % of control | [11] 102 % of control

O=C(O)c1cccc([N+](=O)[O-])c1C(=O)c1ccccc1
inactive: [4] 100 % of control | [5] 95 % of control | dose: 50.0 mg/kg/injection, schedule: Q04DX003 (ip), vehicle: saline with Tween-80 91 % of control | [12] 100 % of control | dose: 100.0 mg/kg/injection, schedule: Q04DX003 (ip), vehicle: saline with Tween-80 95 % of control

C=C1C(=O)O[C@H]2C3OC3(C)CC/C=C(/C(=O)OC)[C@@H](OC(C)=O)[C@H](OC(=O)C3(C)OC3C)[C@H]12 (stereo partly drawn)
inactive: dose: 1.87 mg/kg/injection, schedule: Q01DX009 (ip), vehicle: Klucel (hydroxypropylcellulose) (HPC) 112 % of control | dose: 3.75 mg/kg/injection, schedule: Q01DX009 (ip), vehicle: Klucel (hydroxypropylcellulose) (HPC) 108 % of control | dose: 7.5 mg/kg/injection, schedule: Q01DX009 (ip), vehicle: Klucel (hydroxypropylcellulose) (HPC) 107 % of control

Cc1cc(NS(=O)(=O)c2ccc(NCc3c4ccccc4nc4cc(Cl)ccc34)cc2)no1
inactive: [13] 94 % of control | [14] 94 % of control | [15] 94 % of control

COc1ccc2ccc3ccc(OC)nc3c2n1
inactive: [13] 92 % of control | [14] 95 % of control | [15] 108 % of control

CN1C=[N+](C)Cc2nnn(Cc3ccccc3)c21
inactive: [16] 105 % of control | dose: 3.12 mg/kg/injection, schedule: Q01DX009 (ip), vehicle: saline 105 % of control | dose: 6.25 mg/kg/injection, schedule: Q01DX009 (ip), vehicle: saline 100 % of control

COc1ccc(S(=O)(=O)O)cc1NS(=O)(=O)c1ccc(C)cc1
inactive: dose: 60.0 mg/kg/injection, schedule: Q01DX005 (ip), vehicle: saline 102 % of control | dose: 120.0 mg/kg/injection, schedule: Q01DX005 (ip), vehicle: saline 98 % of control | dose: 240.0 mg/kg/injection, schedule: Q01DX005 (ip), vehicle: saline 103 % of control

C[C@@]1(N=Cc2ccccc2)C(=O)NC(=O)C2=CN(Cc3ccccc3)C=C[C@@H]21
inactive: dose: 50.0 mg/kg/injection, schedule: Q01DX005 (ip), vehicle: Klucel (hydroxypropylcellulose) (HPC) 102 % of control | dose: 100.0 mg/kg/injection, schedule: Q01DX005 (ip), vehicle: Klucel (hydroxypropylcellulose) (HPC) 99 % of control | dose: 200.0 mg/kg/injection, schedule: Q01DX005 (ip), vehicle: Klucel (hydroxypropylcellulose) (HPC) 89 % of control

COC1=C2C[C@@H](C)C[C@@H](OC)[C@@H](O)[C@H](C)/C=C(\C)[C@@H](OC(N)=O)[C@H](OC)/C=C\C=C(/C)C(=O)NC(=CC1=O)C2=O
inactive: dose: 0.75 mg/kg/injection, schedule: Q01DX009 (ip), vehicle: saline with Tween-80 114 % of control | dose: 1.5 mg/kg/injection, schedule: Q01DX009 (ip), vehicle: saline with Tween-80 115 % of control

N#CC(C=C(c1ccccc1)c1ccccc1)c1ccccc1 (stereo not drawn)
inactive: [17] 98 % of control | [18] 98 % of control | [19] 96 % of control

O=C1N(Cc2ccccc2)C2CCS(=O)CCC2N1Cc1ccccc1 (stereo not drawn)
inactive: [6] 100 % of control | [7] 95 % of control | [8] 92 % of control

CNCCNc1ccc(C)c2sc3ccc(O)cc3c(=O)c12
inactive: [20] 95 % of control

C/C=C/C[P+](Cc1cccc(C)c1)(c1ccccc1)c1ccccc1
inactive: dose: 0.78 mg/kg/injection, schedule: Q01DX009 (ip), vehicle: saline 101 % of control | [16] 95 % of control | dose: 3.13 mg/kg/injection, schedule: Q01DX009 (ip), vehicle: saline 111 % of control

CC(C)(C)N(O)c1cccc(P(c2ccccc2)c2ccccc2)c1
inactive: dose: 50.0 mg/kg/injection, schedule: Q04DX002 (ip), vehicle: saline with Tween-80 91 % of control | [1] 94 % of control | [2] 100 % of control

CCOC(=O)/C=C1/Nc2ccc(Cl)cc2NC1=O (tested in a mixture with another compound)
inactive: dose: 50.0 mg/kg/injection, schedule: Q01DX009 (ip), vehicle: distilled water + Tween-80 + alcohol 96 % of control | dose: 100.0 mg/kg/injection, schedule: Q01DX009 (ip), vehicle: distilled water + Tween-80 + alcohol 88 % of control | dose: 200.0 mg/kg/injection, schedule: Q01DX009 (ip), vehicle: distilled water + Tween-80 + alcohol 88 % of control

C=CCn1c(=O)c2[nH]c(Cl)nc2n(CC=C)c1=O
inactive: [20] 105 % of control | [21] 100 % of control | [22] 108 % of control

COc1ccc(OC)c(C(N)=O)c1
inactive: [21] 102 % of control | [22] 102 % of control | dose: 200.0 mg/kg/injection, schedule: Q01DX009 (ip), vehicle: Klucel (hydroxypropylcellulose) (HPC) 100 % of control

CC1(C)CC(=O)C(C)(CCC#N)C(=O)C1
inactive: [17] 102 % of control | [18] 99 % of control | [19] 99 % of control

C1CCC(N2CCOCC2)CC1
inactive: dose: 12.5 mg/kg/injection, schedule: Q01DX009 (ip), vehicle: saline 99 % of control | dose: 25.0 mg/kg/injection, schedule: Q01DX009 (ip), vehicle: saline 117 % of control | [9] 100 % of control and 101 % of control

CCOC(=O)C(=CNc1ccccn1)C(=O)OCC
inactive: [12] 95 % of control | dose: 200.0 mg/kg/injection, schedule: Q01DX009 (ip), vehicle: saline with Tween-80 100 % of control | dose: 400.0 mg/kg/injection, schedule: Q01DX009 (ip), vehicle: saline with Tween-80 113 % of control

c1ccc(CN2C3Oc4ccccc4C2Oc2ccccc23)cc1
inactive: [3] 100 % of control | [4] 100 % of control | [5] 91 % of control

CN(C)CCCNC(CC#N)CCC#N (stereo not drawn)
inactive: [9] 109 % of control | [10] 104 % of control | [11] 109 % of control
